Data reported in patent publication US7083969B2, “Serratia marcescens strain” (Korea Research Institute of Bioscience and Biotechnology, priority 1997, dated 2006).

How the values were obtained:
[1] = Body weight of injected mice in graft versus host experiment (toxicity); type: in vivo
Procedure: (§1) A graft versus host reaction was utilized for the in vivo assay of prodigiosin's immunosuppression. The graft versus host reaction enables an assessment of the immune response of T lymphocytes. On the sixth day after transplantation of the T lymphocytes of BDF1 mice different in histocompatibility antigen, the lymphatic nodes were measured for weight, thereby assessing the immune response of T lymphocyte to the grafted heteroantigens. The prodigiosin was peritoneally injected at a dose of 30–100 mg per kg of body weight for five days while cyclophosphamide, as a positive control, was peritoneally injected at a dose of 100 mg/kg for five days. The body weights of the injected mice were measured to compare the toxicity of prodigiosin with that of cyclophosphamide. […] As for the body weight, it was not changed in the mice injected with prodigiosin at an effective concentration.

[2] = tested on: T lymphocytes; experiment: Graft versus host reaction in vivo (lymphatic node weight); parameters: species or system BDF1 mice; details: 100 mg/kg peritoneally for five days; sixth day after transplantation
Source text: (§2) Germ-free test animals, mice BDF1 and B6C3F1, obtained from Genetic Resources Center, Korean Research Institute of Bioscience and Biotechnology in the Korean Institute of Science and Technology, were used for the assay of the immunosuppressive activity of prodigiosin. […] At such concentrations as show no cytotoxic effects, prodigiosin cannot suppress the immune response of B lymphocytes. […] This selective immunosuppression for T lymphocytes is not ascribed to the selective cytotoxicity for T lymphocytes. The same immunosuppression results as in the ex vivo experiments were obtained in in vivo experiments. When T lymphocyte activity was measured by use of a graft versus host reaction and a T cell-dependent antibody producing reaction, the prodigiosin suppressed the immune response, but exerted no toxicity on animals. Therefore, the immunosuppressive activity of the prodigiosin is thought to be attributed to the selective suppression for T lymphocyte activity.
as §1

[3] = Weight ratio of the spleen to the body (toxicity); type: in vivo, mice
Procedure: (§3) A T cell-dependent immune response reaction was used to assess the influence of prodigiosin on T lymphocytes in vivo. Test animals were immunized with sheep red blood cells by peritoneal injection. 4 days after the immunization, the number of the antibody producing cells was counted. Prodigiosin was peritoneally injected everyday. Based on the number of the […] cells in the non-treated animals, the influence of prodigiosin on T lymphocytes in vivo was assessed as percentage. Also, the weight ratio of the spleen to the body was measured to assay the toxicity of prodigiosin to the animals. Cyclophosphamide was used as a positive control.

[4] = tested on: T lymphocytes; experiment: T cell-dependent immune response in vivo (antibody producing cells after sheep red blood cell immunization); parameters: species or system mice; details: 100 mg/kg; 4 days after immunization
Source text: as §2, §3

[5] = tested on: CD8 T lymphocytes; details: known; cited from earlier work
[6] = tested on: T lymphocytes; details: known; cited from earlier work

SMILES | Body weight ([1]; 100 mg/kg peritoneally for five days) [g] | body weight change ([1]; at an effective concentration) | Wt. (mg) of Lymphatic node [2] [mg] | Wt. Ratio of spleen/body (%) ([3]; 100 mg/kg) | toxicity judged by weight ratio of the spleen to the body ([3]; at effective concentrations) | Immune Response (%) [4] [%] | suppression of CD8 T lymphocytes [5] | proliferation of T lymphocytes [6]
O=P1(N(CCCl)CCCl)NCCCO1 (centres unmarked) [Cyclophosphamide, reference compound] | 18 | loss of body weight | 0.06 | 26 | very toxic | 7 | – | –
CCCCCCCCCCCc1ccc(/C=C2\N=C(c3ccc[nH]3)C=C2OC)[nH]1 [Prodigiosin 25-C, prodigiosin 25-C] | – | – | – | – | – | – | suppressed | suppress
